Where a name gives a salt, the structure may show the parent alone.
Key:
[1] = molecular target: T1, human alpha2A receptors (Homo sapiens, UniProt P08913); assay: cell-based
T1 sequence (P08913 1-465): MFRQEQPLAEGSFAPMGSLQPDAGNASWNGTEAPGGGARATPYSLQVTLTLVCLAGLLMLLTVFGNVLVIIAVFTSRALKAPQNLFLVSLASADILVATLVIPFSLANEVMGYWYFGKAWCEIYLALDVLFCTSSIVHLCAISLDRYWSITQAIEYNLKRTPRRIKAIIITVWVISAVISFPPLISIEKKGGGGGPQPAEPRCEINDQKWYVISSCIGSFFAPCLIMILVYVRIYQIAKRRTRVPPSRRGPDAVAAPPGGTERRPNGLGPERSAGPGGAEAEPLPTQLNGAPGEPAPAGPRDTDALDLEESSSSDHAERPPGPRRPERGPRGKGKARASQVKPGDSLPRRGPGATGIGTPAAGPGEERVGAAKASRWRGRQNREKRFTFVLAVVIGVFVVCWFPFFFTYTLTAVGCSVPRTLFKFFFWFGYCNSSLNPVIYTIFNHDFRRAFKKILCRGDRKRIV
Experimental: Experiment 1: Determination of alpha2A and alpha2C Antagonistic Activity In Vitro
The growth medium was removed and the cells were incubated with the test compounds and the FLIPR Calcium 6 Assay reagent (Molecular Devices, CA, USA) for 2 h at 37° C. in dark. The test compounds (concentrations in cells 100 pM-10 μM) were dissolved in Probenecid-Ringer consisting of 150 mM NaCl, 3 mM KCl, 1.2 mM MgCl2, 1 mM CaCl2, 5 mM glucose, 20 mM HEPES and 2.5 mM probenecid (pH 7.4 adjusted with 1.0 M NaOH). […] All experiments were performed at 37° C. For agonism measurements the test compounds dissolved in Probenecid-Ringer were applied by FLIPR Tetra at 15 s time point. In order to determine antagonism, the cells were stimulated either with 100 nM adrenaline or noradrenaline and the test compounds were added to the cells 2 h before the experiment with the FLIPR Calcium 6 Assay reagent. […] Typically, there were four replicates at each concentration and six different dose levels. […] The minimum fluorescence value subtracted from the maximum value for each well was used in the calculations. ScreenWorks version 4.0 software was used for analyzing the results. Fitting of the antagonist dose-response results was performed with the free Hill equation and the IC50 values were fitted with IDBS XE software using model 200: y=(A+(B/(1+((x/C)̂D)))), where A is the curve maximum, B the curve minimum and C equals the EC50 value. D is slope factor (Hill). Kb was calculated with the Cheng-Prusoff equation Kb=A/((B/C)+1), where A is the IC50 of antagonist, B the concentration of agonist and C the EC50 of the agonist.

[2] = molecular target: T2, human alpha2C receptors (Homo sapiens, UniProt P18825); assay: Determination of alpha2C antagonistic activity in vitro (FLIPR calcium assay); details: for Kb: Alpha 2C Adrenaline Kb, Kb calculated from IC50 with the Cheng-Prusoff equation, adrenaline as agonist, CHO cells, human alpha2C
T2 sequence (P18825 1-462): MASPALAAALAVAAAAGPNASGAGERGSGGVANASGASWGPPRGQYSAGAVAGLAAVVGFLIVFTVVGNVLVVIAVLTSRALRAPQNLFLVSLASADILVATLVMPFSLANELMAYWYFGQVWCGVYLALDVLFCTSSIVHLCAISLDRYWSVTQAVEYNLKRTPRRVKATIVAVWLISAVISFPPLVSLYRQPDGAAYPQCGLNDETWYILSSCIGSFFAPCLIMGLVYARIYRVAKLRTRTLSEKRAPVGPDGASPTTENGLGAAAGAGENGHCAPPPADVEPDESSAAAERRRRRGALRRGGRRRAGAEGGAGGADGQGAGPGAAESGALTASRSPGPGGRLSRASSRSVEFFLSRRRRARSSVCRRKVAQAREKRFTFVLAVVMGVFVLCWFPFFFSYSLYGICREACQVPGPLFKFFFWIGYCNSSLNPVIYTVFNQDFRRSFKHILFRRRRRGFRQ

Row | SMILES | IC50 [1] [nM] | Kb [1] [nM] | IC50 [2] [nM] | Kb [2] [nM]
1 | CC1(c2ccccc2)NC(=O)N([C@H]2CCCN(C[C@H]3COc4ccccc4O3)C2)C1=O (stereo partly drawn) [example 74, 3-((S)-1-(((S)-2,3-Dihydrobenzo[b][1,4]dioxin-2-yl)methyl)piperidin-3-yl)-5-methyl-5-phenylimidazolidine-2,4-dione] | 13 | 1 | < 0.1 | < 0.01
2 | Fc1ccc2c(c1)ncn2[C@H]1CCCN(C[C@H]2COc3ccccc3O2)C1 [example 87, 1-((S)-1-(((S)-2,3-Dihydrobenzo[b][1,4]dioxin-2-yl)methyl)piperidin-3-yl)-5-fluoro-1H-benzo[d]imidazole] | > 10000 | > 449 | < 0.1 | < 0.01
3 | O=c1n(-c2ccccc2)c2ccccc2n1[C@H]1CCCN(C[C@H]2COc3ccccc3O2)C1 [example 149, 1-((S)-1-(((S)-2,3-Dihydrobenzo[b][1,4]dioxin-2-yl)methyl)piperidin-3-yl)-3-phenyl-1H-benzo[d]imidazol-2(3H)-one] | > 10000 | > 449 | 3220 | 324
4 | O=C1CN(CC2CC2)C(=O)N1[C@H]1CCCN(C[C@H]2COc3ccccc3O2)C1 [example 108, 1-(Cyclopropylmethyl)-3-((S)-1-(((S)-2,3-dihydrobenzo[b][1,4]dioxin-2-yl)methyl)piperidin-3-yl)imidazolidine-2,4-dione] | > 10000 | > 449 | 1.25 | 0.13
5 | CN1C(=O)N([C@H]2CCCN(C[C@H]3COc4ccccc4O3)C2)CC1(C)C [example 51, 1-((S)-1-(((S)-2,3-Dihydrobenzo[b][1,4]dioxin-2-yl)methyl)piperidin-3-yl)-3,4,4-trimethylimidazolidin-2-one] | > 10000 | > 449 | 0.11 | 0.01
6 | O=C1c2cnccc2CN1[C@H]1CCCN(C[C@H]2COc3ccccc3O2)C1 [example 11, 2-((S)-1-(((S)-2,3-Dihydrobenzo[b][1,4]dioxin-2-yl)methyl)piperidin-3-yl)-1H-pyrrolo[3,4-c]pyridin-3(2H)-one] | > 10000 | > 449 | 127 | 12.8
7 | O=C1c2ncncc2CN1[C@H]1CCCN(C[C@H]2COc3ccccc3O2)C1 [example 78, 6-((S)-1-(((S)-2,3-Dihydrobenzo[b][1,4]dioxin-2-yl)methyl)piperidin-3-yl)-5H-pyrrolo[3,4-d]pyrimidin-7(6H)-one] | > 10000 | > 449 | 256 | 25.8
8 | CC(C)(C)N1CC(=O)N([C@H]2CCCN(C[C@H]3COc4ccccc4O3)C2)C1=O [example 117, 1-tert-Butyl-3-((S)-1-(((S)-2,3-dihydrobenzo[b][1,4]dioxin-2-yl)methyl)piperidin-3-yl)imidazolidine-2,4-dione] | > 10000 | > 449 | 1.99 | 0.202
9 | N#Cc1ccc2c(c1)CN([C@H]1CCCN(C[C@H]3COc4ccccc4O3)C1)C2=O [example 67, 2-((S)-1-(((S)-2,3-Dihydrobenzo[b][1,4]dioxin-2-yl)methyl)piperidin-3-yl)-1-oxoisoindoline-5-carbonitrile] | > 10000 | > 449 | 1.3 | 0.132
10 | Cc1nc2cncnc2n1[C@H]1CCCN(C[C@H]2COc3ccccc3O2)C1 [example 160, 9-((S)-1-(((S)-2,3-Dihydrobenzo[b][1,4]dioxin-2-yl)methyl)piperidin-3-yl)-8-methyl-9H-purine] | > 10000 | > 449 | 0.15 | 0.016
11 | O=C1c2ncccc2CN1[C@H]1CCCN(C[C@H]2COc3ccccc3O2)C1 [example 77, 6-((S)-1-(((S)-2,3-Dihydrobenzo[b][1,4]dioxin-2-yl)methyl)piperidin-3-yl)-5H-pyrrolo[3,4-b]pyridin-7(6H)-one] | > 10000 | > 449 | 10.5 | 1.05
12 | COc1cc2c(cc1OC)C(=O)N([C@H]1CCCN(C[C@H]3COc4ccccc4O3)C1)C2 [example 68, 2-((S)-1-(((S)-2,3-Dihydrobenzo[b][1,4]dioxin-2-yl)methyl)piperidin-3-yl)-5,6-dimethoxyisoindolin-1-one] | > 10000 | > 449 | 2.79 | 0.282
13 | Cc1nc2ncccc2n1[C@H]1CCCN(C[C@H]2COc3ccccc3O2)C1 [example 157, 1-((S)-1-(((S)-2,3-Dihydrobenzo[b][1,4]dioxin-2-yl)methyl)-piperidin-3-yl)-2-methyl-1H-imidazo[4,5-b]pyridine] | > 10000 | > 449 | 1.63 | 0.164
14 | CN1C(=O)N([C@H]2CCCN(C[C@H]3COc4ccccc4O3)C2)C(=O)C12CC2 [example 123, 6-((S)-1-(((S)-2,3-Dihydrobenzo[b][1,4]dioxin-2-yl)methyl)-piperidin-3-yl)-4-methyl-4,6-diazaspiro[2.4]heptane-5,7-dione] | > 10000 | > 449 | 3.52 | 0.354
15 | Fc1ccc2ncn([C@H]3CCCN(C[C@H]4COc5ccccc5O4)C3)c2c1 [example 82, 1-((S)-1-(((S)-2,3-Dihydrobenzo[b][1,4]dioxin-2-yl)methyl)piperidin-3-yl)-6-fluoro-1H-benzo[d]imidazole] | > 10000 | > 449 | < 0.1 | < 0.01
16 | Cn1ncc2c1CN([C@H]1CCCN(C[C@H]3COc4ccccc4O3)C1)C2=O [example 80, 5-((S)-1-(((S)-2,3-Dihydrobenzo[b][1,4]dioxin-2-yl)methyl)piperidin-3-yl)-1-methyl-5,6-dihydropyrrolo[3,4-c]pyrazol-4(1H)-one] | > 10000 | > 449 | > 10000 | > 1010
17 | CCCN1C(=O)C(=O)N([C@H]2CCCN(C[C@H]3COc4ccccc4O3)C2)C1=O [example 132, 1-((S)-1-(((S)-2,3-Dihydrobenzo[b][1,4]dioxin-2-yl)methyl)-piperidin-3-yl)-3-propylimidazolidine-2,4,5-trione] | > 10000 | > 449 | 0.308 | 0.031
18 | CCc1nc2cccnc2n1[C@H]1CCCN(C[C@H]2COc3ccccc3O2)C1 [example 159, 3-((S)-1-(((S)-2,3-Dihydrobenzo[b][1,4]dioxin-2-yl)methyl)piperidin-3-yl)-2-ethyl-3H-imidazo[4,5-b]pyridine] | > 10000 | > 449 | 0.01 | 0.001
19 | O=C1N(Cc2ccccc2)CCN1[C@H]1CCCN(C[C@H]2COc3ccccc3O2)C1 [example 50, 1-Benzyl-3-((S)-1-(((S)-2,3-dihydrobenzo[b][1,4]dioxin-2-yl)methyl)piperidin-3-yl)imidazolidin-2-one] | 1020 | 46 | < 0.1 | < 0.01
20 | CC(C)N1CC(=O)N([C@H]2CCCN(C[C@H]3COc4ccccc4O3)C2)C1=O [example 104, 3-((S)-1-(((S)-2,3-Dihydrobenzo[b][1,4]dioxin-2-yl)methyl)piperidin-3-yl)-1-isopropylimidazolidine-2,4-dione] | > 10000 | > 449 | 10 | 1.01
21 | O=C1c2cccnc2CN1[C@H]1CCCN(C[C@H]2COc3ccccc3O2)C1 [example 10, 6-((S)-1-(((S)-2,3-Dihydrobenzo[b][1,4]dioxin-2-yl)methyl)piperidin-3-yl)-6,7-dihydro-5H-pyrrolo[3,4-b]pyridin-5-one] | > 10000 | > 449 | 3.78 | 0.379
22 | O=C1C2CC2(c2ccccc2)C(=O)N1[C@H]1CCCN(C[C@H]2COc3ccccc3O2)C1 (stereo partly drawn) [example 37, 3-((S)-1-(((S)-2,3-Dihydrobenzo[b][1,4]dioxin-2-yl)methyl)piperidin-3-yl)-1-phenyl-3-azabicyclo[3.1.0]hexane-2,4-dione] | > 10000 | > 449 | < 0.01 | < 0.001
23 | Cc1ccc2c(c1)CN([C@H]1CCCN(C[C@H]3COc4ccccc4O3)C1)C2=O [example 59, 2-((S)-1-(((S)-2,3-Dihydrobenzo[b][1,4]dioxin-2-yl)methyl)piperidin-3-yl)-5-methylisoindolin-1-one formate] | > 10000 | > 449 | < 0.01 | < 0.001

Source: patent US20190152992A1, “BENZODIOXANE DERIVATIVES AND THEIR PHARMACEUTICAL USE” (Orion Corporation, priority 2016, published 2019)
